From patent US20240336654A1, “ANTIMICROBIAL PEPTIDOMIMETICS” (SPEXIS AG, priority 2021, published 2024) come the findings set out here.

Holding throughout (format): cell-based
For data set [1], the system named is Escherichia coli MCR-1 Af 45. Particulars: MCR-1 Af 45. As to the method:
(§1) Lyophilized peptides were weighed on a Microbalance (Mettler MT5) and dissolved in sterile water to a final concentration of 1 mg/mL. Stock solutions were kept at +4° C., light protected.
(§2) The selective antimicrobial activities of the peptides were determined in 96-well plates (Greiner, polystyrene) by the standard CLSI broth microdilution method (Clinical and Laboratory Standards Institute. Methods for Dilution Antimicrobial Susceptibility Tests for Bacteria That Grow Aerobically; Approved Standard-Ninth Edition. CLSI document M07-A9 (ISBN 1-56238-783-9 [Print]; ISBN 1-56238-784-7 [Electronic]). Clinical and Laboratory Standards Institute, 950 West Valley Road, Suite 2500, Wayne, Pennsylvania 19087, USA, 2012) with slight modifications.
(§3) Colonies of the microorganisms were diluted in saline (0.85%, NaCl) and adjusted using a McFarland reader (bioMérieux SA, Marcy-l'Etoile, France) to 0.5 McFarland standard. Subsequently, the bacterial suspension was diluted in Mueller-Hinton II (MHII, cation adjusted) broth to give approximately 5×10^5 colony forming units (CFU/mL).
(§4) Inocula of the microorganisms were diluted into Mueller-Hinton II (MH, cation adjusted) broth and compared with a 0.5 McFarland standard to give appr. 10^6 colony forming units (CFU)/mL. Aliquots (90 μl) of inoculate were added to 10 μl of water+P-80 (Polysorbate 80, 0.002% final concentration) containing the peptide in serial two-fold dilutions at 10 fold final concentration. The following microorganisms were used to determine antibiotic selectivity of the peptides: Escherichia coli ATCC 25922, Escherichia coli MCR-1 Af 45 and Klebsiella pneumoniae SSI3010. Antimicrobial activities of the peptides were expressed as the minimal inhibitory concentration (MIC) in μg/mL at which no visible growth was observed after 18-20 hours of incubation at 35° C.

The subject of data set [2] is Klebsiella pneumoniae SSI3010. Particulars: SSI3010. As to the method: as §1, §2, §3, §4
Data set [3] relates to Escherichia coli ATCC 25922. Particulars: ATCC 25922. As to the method: as §1, §2, §3, §4
For data set [4], the system named is human red blood cells (hRBC). Particulars: red cells of human, 1 h, 200 μg/mL. As to the method: Lyophilized peptides were weighed on a Microbalance (Mettler MT5) and dissolved in sterile water to a final concentration of 1 mg/mL. Stock solutions were kept at +4° C., light protected. The peptides were tested for their hemolytic activity against human red blood cells (hRBC). Fresh hRBC were washed three times with phosphate buffered saline (PBS) and centrifuged for 5 min at 3000×g. Compounds (200 μg/mL) were incubated with 20% hRBC (v/v) for 1 h at 37° C. and shaking at 300 rpm. A value of 0% and 100% cell lyses, respectively, was determined by incubation of hRBC in the presence of PBS and 2.5% Triton X-100 in H2O, respectively. The samples were centrifuged, the supernatants were 8-fold diluted in PBS buffer and the optical densities (OD) were measured at 540 nm. The 100% lyses value (OD540H2O) gave an OD540 of approximately 0.5-1.0. Percent hemolysis was calculated as follows: (OD540peptide/OD540H2O)×100%.

Where a SMILES comes first, the peptide text is derived from it. Bridges are numbered along the chain shown (N, C = ends). [ ]: non-standard residue; d: D form. Pro(4,4-F2) = O=C(O)[C@@H]1CC(F)(F)CN1; Hyp = O=C(O)[C@@H]1C[C@@H](O)CN1; Pen = CC(C)(S)[C@H](N)C(=O)O; ΔPro = O=C(O)[C@@H]1C=CCN1; dDab = NCC[C@@H](N)C(=O)O; Dab = NCC[C@H](N)C(=O)O Bounds are passed on as bounds.

Turning to `CC[C@H](C)[C@H](NC(=O)[C@@H]1CC(F)(F)CN1C(=O)[C@@H](N)C(C)C)C(=O)N[C@@H]1C(=O)N[C@@H](Cc2ccc(O)cc2)C(=O)N[C@@H]([C@@H](C)O)C(=O)N[C@@H](CC(N)=O)C(=O)N[C@@H](CCCNC(=N)N)C(=O)N[C@@H](CCN)C(=O)N[C@@H]([C@@H](C)O)C(=O)N[C@H](CCN)C(=O)N[C@@H](CCCCN)C(=O)N[C@@H](CCN)C(=O)N[C@@H](CCN)C(=O)N[C@H](C(=O)N[C@@H](Cc2ccc(O)cc2)C(=O)O)CSSC1(C)C` [Example 9, Val-Pro(4,4F2)-Ile-Pen-Tyr-Thr-Asn-Arg-Dab-Thr-^DDab-Lys-Dab-Dab-Cys-Tyr] (H-V[Pro(4,4-F2)]I[Pen]YTNR[Dab]T[dDab]K[Dab][Dab]CY-OH; disulfide 4-15), in data set [1], the “Escherichia coli MCR-1 Af45 MIC” value came out at 0.0625 µg/mL. The “Klebsiella pneumoniae SSI3010 MIC” value in data set [2] came out at 0.25 µg/mL. Moreover, the “Escherichia coli ATCC 25922 MIC” value in data set [3] is 0.125 µg/mL. For the same compound, the “Hemolysis at 0.2 g/L” value in data set [4] was under 1%.

Consider `CC[C@H](C)[C@H](NC(=O)[C@@H]1C=CCN1C(=O)[C@@H](N)C(C)C)C(=O)N[C@@H]1C(=O)N[C@@H](Cc2ccc(O)cc2)C(=O)N[C@@H]([C@@H](C)O)C(=O)N[C@@H](CC(N)=O)C(=O)N[C@@H](CCCNC(=N)N)C(=O)N[C@@H](CCN)C(=O)N[C@@H]([C@@H](C)O)C(=O)N[C@H](CCN)C(=O)N[C@@H](CCCCN)C(=O)N[C@@H](CCN)C(=O)N[C@@H](CCN)C(=O)N[C@H](C(=O)N[C@@H](Cc2ccc(O)cc2)C(=O)O)CSSC1(C)C` [Example 10, Val-Pro(3,4dehydro)-Ile-Pen-Tyr-Thr-Asn-Arg-Dab-Thr-^DDab-Lys-Dab-Dab-Cys-Tyr] (H-V[ΔPro]I[Pen]YTNR[Dab]T[dDab]K[Dab][Dab]CY-OH; disulfide 4-15), for which the “Escherichia coli MCR-1 Af45 MIC” value in data set [1] came out at 0.0625 µg/mL. For the same compound, in data set [2], the “Klebsiella pneumoniae SSI3010 MIC” value was determined as 0.125 µg/mL. Also, the “Escherichia coli ATCC 25922 MIC” value in data set [3] amounted to 0.0625 µg/mL. For the same compound, the “Hemolysis at 0.2 g/L” value in data set [4] is under 1%.

With `CC[C@H](C)[C@H](NC(=O)[C@@H]1C[C@@H](O)CN1C(=O)[C@@H](N)C(C)C)C(=O)N[C@H]1CSSC[C@@H](C(=O)N[C@@H](Cc2ccc(O)cc2)C(=O)O)NC(=O)[C@H](CCN)NC(=O)[C@H](CCN)NC(=O)[C@H](CCCCN)NC(=O)[C@@H](CCN)NC(=O)[C@H]([C@@H](C)O)NC(=O)[C@H](CCN)NC(=O)[C@H](CCCNC(=N)N)NC(=O)[C@H](CC(N)=O)NC(=O)[C@H](CO)NC(=O)[C@H](Cc2ccc(O)cc2)NC1=O` [Example 11, Val-Hyp-Ile-Cys-Tyr-Ser-Asn-Arg-Dab-Thr-^DDab-Lys-Dab-Dab-Cys-Tyr] (H-V[Hyp]ICYSNR[Dab]T[dDab]K[Dab][Dab]CY-OH; disulfide 4-15), the “Escherichia coli MCR-1 Af45 MIC” value in data set [1] came out at 0.25 µg/mL. For the same compound, the “Klebsiella pneumoniae SSI3010 MIC” value in data set [2] is 0.5 µg/mL. Besides, in data set [3], the “Escherichia coli ATCC 25922 MIC” value came out at 0.5 µg/mL. In data set [4], the “Hemolysis at 0.2 g/L” value is under 1%.

For `CC[C@H](C)[C@H](NC(=O)[C@@H]1C[C@@H](O)CN1C(=O)[C@@H](N)C(C)C)C(=O)N[C@H]1CSSC(C)(C)[C@@H](C(=O)N[C@@H](Cc2ccc(O)cc2)C(=O)O)NC(=O)[C@H](CCN)NC(=O)[C@H](CCN)NC(=O)[C@H](CCCCN)NC(=O)[C@@H](CCN)NC(=O)[C@H]([C@@H](C)O)NC(=O)[C@H](CCN)NC(=O)[C@H](CCCNC(=N)N)NC(=O)[C@H](CC(N)=O)NC(=O)[C@H](CO)NC(=O)[C@H](Cc2ccc(O)cc2)NC1=O` [Example 12, Val-Hyp-Ile-Cys-Tyr-Ser-Asn-Arg-Dab-Thr-^DDab-Lys-Dab-Dab-Pen-Tyr] (H-V[Hyp]ICYSNR[Dab]T[dDab]K[Dab][Dab][Pen]Y-OH; disulfide 4-15), the “Escherichia coli MCR-1 Af45 MIC” value in data set [1] turned out to be 0.125 µg/mL. Further, in data set [2], the “Klebsiella pneumoniae SSI3010 MIC” value worked out at 0.5 µg/mL. Moreover, the “Escherichia coli ATCC 25922 MIC” value in data set [3] worked out at 0.25 µg/mL. In addition, the “Hemolysis at 0.2 g/L” value in data set [4] is under 1%.

`CC[C@H](C)[C@H](NC(=O)[C@@H]1C[C@@H](O)CN1C(=O)[C@@H](N)C(C)C)C(=O)N[C@@H]1C(=O)N[C@@H](C)C(=O)N[C@@H](CO)C(=O)N[C@@H](CC(N)=O)C(=O)N[C@@H](CCCNC(=N)N)C(=O)N[C@@H](CCN)C(=O)N[C@@H]([C@@H](C)O)C(=O)N[C@H](CCN)C(=O)N[C@@H](CCCCN)C(=O)N[C@@H](CCN)C(=O)N[C@@H](CCN)C(=O)N[C@H](C(=O)N[C@@H](Cc2ccc(O)cc2)C(=O)O)CSSC1(C)C` [Example 13, Val-Hyp-Ile-Pen-Ala-Ser-Asn-Arg-Dab-Thr-^DDab-Lys-Dab-Dab-Cys-Tyr] (H-V[Hyp]I[Pen]ASNR[Dab]T[dDab]K[Dab][Dab]CY-OH; disulfide 4-15): the “Escherichia coli MCR-1 Af45 MIC” value in data set [1] turned out to be 0.125 µg/mL. Also, in data set [2], the “Klebsiella pneumoniae SSI3010 MIC” value came out at 0.5 µg/mL. For the same compound, in data set [3], the “Escherichia coli ATCC 25922 MIC” value was found to be 0.5 µg/mL. Moreover, in data set [4], the “Hemolysis at 0.2 g/L” value is under 1%.

`CC[C@H](C)[C@H](NC(=O)[C@@H]1C[C@@H](O)CN1C(=O)[C@@H](N)C(C)C)C(=O)N[C@@H]1C(=O)N[C@@H](CO)C(=O)N[C@@H](CO)C(=O)N[C@@H](CC(N)=O)C(=O)N[C@@H](CCCNC(=N)N)C(=O)N[C@@H](CCN)C(=O)N[C@@H]([C@@H](C)O)C(=O)N[C@H](CCN)C(=O)N[C@@H](CCCCN)C(=O)N[C@@H](CCN)C(=O)N[C@@H](CCN)C(=O)N[C@H](C(=O)N[C@@H](Cc2ccc(O)cc2)C(=O)O)CSSC1(C)C` [Example 14, Val-Hyp-Ile-Pen-Ser-Ser-Asn-Arg-Dab-Thr-^DDab-Lys-Dab-Dab-Cys-Tyr] (H-V[Hyp]I[Pen]SSNR[Dab]T[dDab]K[Dab][Dab]CY-OH; disulfide 4-15): the “Escherichia coli MCR-1 Af45 MIC” value in data set [1] was determined as 0.25 µg/mL. Moreover, the “Klebsiella pneumoniae SSI3010 MIC” value in data set [2] was determined as 0.5 µg/mL. For the same compound, the “Escherichia coli ATCC 25922 MIC” value in data set [3] amounted to 0.5 µg/mL. Also, in data set [4], the “Hemolysis at 0.2 g/L” value is given as under 1%.

For `CC[C@H](C)[C@H](NC(=O)[C@@H]1C[C@@H](O)CN1C(=O)[C@@H](N)C(C)C)C(=O)N[C@@H]1C(=O)N[C@@H](Cc2ccc(O)cc2)C(=O)N[C@@H]([C@@H](C)O)C(=O)N[C@@H](CC(N)=O)C(=O)N[C@@H](CCCNC(=N)N)C(=O)N[C@@H](CCN)C(=O)N[C@@H]([C@@H](C)O)C(=O)N[C@H](CCN)C(=O)N[C@@H](CCCCN)C(=O)N[C@@H](CCN)C(=O)N[C@@H](CCN)C(=O)N[C@H](C(=O)N[C@@H](Cc2ccc(O)cc2)C(=O)O)CSSC1(C)C` [Example 15, Val-Hyp-Ile-Pen-Tyr-Thr-Asn-Arg-Dab-Thr-^DDab-Lys-Dab-Dab-Cys-Tyr] (H-V[Hyp]I[Pen]YTNR[Dab]T[dDab]K[Dab][Dab]CY-OH; disulfide 4-15), in data set [1], the “Escherichia coli MCR-1 Af45 MIC” value came out at 0.0625 µg/mL. In data set [2], the “Klebsiella pneumoniae SSI3010 MIC” value was found to be 0.125 µg/mL. In addition, the “Escherichia coli ATCC 25922 MIC” value in data set [3] worked out at 0.0625 µg/mL. Also, the “Hemolysis at 0.2 g/L” value in data set [4] is on record as under 1%.

For `CC[C@H](C)[C@@H]1NC(=O)[C@H](Cc2ccc(O)cc2)NC(=O)[C@@H](NC(=O)[C@@H](NC(=O)[C@@H]2C[C@@H](O)CN2C(=O)[C@@H](N)C(C)C)[C@@H](C)CC)C(C)(C)SSC[C@@H](C(=O)N[C@@H](Cc2ccc(O)cc2)C(=O)O)NC(=O)[C@H](CCN)NC(=O)[C@H](CCCNC(=N)N)NC(=O)[C@H](CCCCN)NC(=O)[C@@H](CCN)NC(=O)[C@H]([C@@H](C)O)NC(=O)[C@H](CCN)NC(=O)[C@H](CCCNC(=N)N)NC(=O)[C@H](CC(N)=O)NC1=O` [Example 16, Val-Hyp-Ile-Pen-Tyr-Ile-Asn-Arg-Dab-Thr-^DDab-Lys-Arg-Dab-Cys-Tyr] (H-V[Hyp]I[Pen]YINR[Dab]T[dDab]KR[Dab]CY-OH; disulfide 4-15), the “Escherichia coli MCR-1 Af45 MIC” value in data set [1] came to 0.25 µg/mL. Moreover, the “Klebsiella pneumoniae SSI3010 MIC” value in data set [2] is 0.5 µg/mL. In addition, the “Escherichia coli ATCC 25922 MIC” value in data set [3] worked out at 0.375 µg/mL. The “Hemolysis at 0.2 g/L” value in data set [4] is listed as under 1%.
